Starred links: 1 amine or outer side, 2 acyl side, 3 side chain; linkers in the order of their positions; H or OH if unused. Positions of bridges follow the written chain, without caps; N, C: chain ends. Residues, ends and D or L forms follow the SMILES beside them. Suc = O=C(CCC(=O)[*:2])[*:1]
Key:
[1] = system: Male rats (Sprague Dawley); experiment: Hypocalcemic activity: serum Ca++ decrease in rats after subcutaneous injection; format: in vivo; settings: rat serum
Protocol: Calcitonins lower the blood calcium of immature rats by inhibiting bone resorption. Their potency can be assessed by determining the micrograms of peptide required to reduce the serum calcium by ten percent. The results of in vivo tests of the biological activities of synthetic calcitonin peptides of the invention are shown in Example 37.
This activity was measured as follows: Male rats (Sprague Dawley) weighing approximately 100 grams were fasted overnight. Peptides according to the invention, comprising various potency-enhancing modifications, were dissolved in pH 7.4 PBS buffer at a concentration range of 0.001 microgram to about 100 microgram per ml. The rats were anesthetized with Metophane10, weighed and injected subcutaneously with the peptide solutions in a dose of from 0.001 to about 100 microgram per kilogram of body weight. […] Calcium-lowering potencies of the synthetic peptides can be calculated in International units (IU) per mg as described by the method of M. Kumar et al., J. Endocrinology 33:469-475 (1964). According to this test, 10 IU is defined as the amount of peptide necessary for lowering Ca++ concentration by 10% in 100 gram rats one hour after subcutaneous injection. Serum Ca++ levels in the rat after subcutaneous injection of various peptides are summarized below: […]

[2] = parameters: species or system rabbits; settings: rabbit, in vivo
Protocol: Peptides of the formula I when administered intranasally show hypocalcemic effects in animals. In order to determine their bioavailability, the effect of hypocalcemic peptides administered intranasally were compared with those administered by intravenous injection, as described below. Nasal powdery formulations containing 100 IU per 30 mg of dry powder were prepared substantially as described in U.S. Pat. No. 4,613,500. Peptides were administered intranasally at a dose of 2.8 IU/kg or intravenously at a dose of 1.75 IU/kg to rabbits. Blood samples were withdrawn before administering the peptides and 0.5, 1, 2, 4, and 6 hours after administration, and serum calcium levels determined. The ratios of areas under the curve of hypocalcemic effect (0 to 6 hours) after nasal and intravenous administration are calculated.

## [(SerThr)2 -Lys-7]-cCT(7-32)
[1]; dose 1 ug/kg s.c., 1 hr
  Ca++ Decrease: 2.09 mg/dL
[1]; dose 10 ug/kg s.c., 1 hr
  Ca++ Decrease: 2.75 mg/dL
[1]; dose 100 ug/kg s.c., 1 hr
  Ca++ Decrease: 2.75 mg/dL

## [(ADA-Ser)-5,Ala-7]-cCT(5-32)
[1]; dose 1 ug/kg s.c., 1 hr
  Ca++ Decrease: 0.19 mg/dL
[1]; dose 1 ug/kg s.c., 3 hr
  Ca++ Decrease: 0.14 mg/dL
[1]; dose 3 ug/kg s.c., 1 hr
  Ca++ Decrease: 0.33 mg/dL
[1]; dose 3 ug/kg s.c., 3 hr
  Ca++ Decrease: 0.21 mg/dL
[1]; dose 10 ug/kg s.c., 1 hr
  Ca++ Decrease: 2.83 mg/dL
[1]; dose 10 ug/kg s.c., 3 hr
  Ca++ Decrease: 2.98 mg/dL
[1]; dose 10 ug/kg s.c., 6 hr
  Ca++ Decrease: 2.10 mg/dL

## [(Oleyl-Ser)-5,Ala-7]-cCT(5-32)
[1]; dose 1 ug/kg s.c., 1 hr
  Ca++ Decrease: 0.47 mg/dL
[1]; dose 10 ug/kg s.c., 1 hr
  Ca++ Decrease: 0.60 mg/dL
[1]; dose 100 ug/kg s.c., 1 hr
  Ca++ Decrease: 1.15 mg/dL

## CC[C@H](C)[C@H](NC(=O)[C@H](C)NC(=O)[C@@H](NC(=O)[C@H](CCC(N)=O)NC(=O)[C@@H]1CCCN1C(=O)[C@H](Cc1ccccc1)NC(=O)[C@@H](NC(=O)[C@H](Cc1c[nH]cn1)NC(=O)[C@H](Cc1ccccc1)NC(=O)[C@H](CCCCN)NC(=O)[C@H](CC(N)=O)NC(=O)[C@H](CC(C)C)NC(=O)[C@H](CC(=O)O)NC(=O)[C@H](CCC(N)=O)NC(=O)[C@@H](NC(=O)[C@H](CC(C)C)NC(=O)[C@@H](NC(=O)CNC(=O)[C@H](CC(C)C)NC(=O)[C@H](CC(C)C)NC(=O)[C@@H]1CSSC[C@H](N)C(=O)NCC(=O)N[C@@H](CC(N)=O)C(=O)N[C@@H](CC(C)C)C(=O)N[C@@H](CO)C(=O)N[C@@H]([C@@H](C)O)C(=O)N1)[C@@H](C)O)[C@@H](C)O)[C@@H](C)O)[C@@H](C)O)C(=O)NCC(=O)N[C@H](C(=O)NCC(=O)N[C@@H](C)C(=O)N1CCC[C@H]1C(N)=O)C(C)C [[Leu-8,12,16]-hCT, [Leu^8,12,16]-hCT] (H-CGNLSTCLLGTLTQDLNKFHTFPQTAIGVGAP-NH2; disulfide 1-7)
[2]
  Ratio of Nasal:i.v. Bioavailability: 28.0%

## CC(C)C[C@H](NC(=O)[C@H](CC(C)C)NC(=O)[C@@H]1CSSC[C@H](N)C(=O)N[C@@H](CO)C(=O)N[C@@H](CC(N)=O)C(=O)N[C@@H](CC(C)C)C(=O)N[C@@H](CO)C(=O)N[C@@H]([C@@H](C)O)C(=O)N1)C(=O)NCC(=O)N[C@@H](CCCCN)C(=O)N[C@@H](CC(C)C)C(=O)N[C@@H](CO)C(=O)N[C@@H](CCC(N)=O)C(=O)N[C@@H](CCC(=O)O)C(=O)N[C@@H](CC(C)C)C(=O)N[C@@H](Cc1c[nH]cn1)C(=O)N[C@@H](CCCCN)C(=O)N[C@@H](CC(C)C)C(=O)N[C@@H](CCC(N)=O)C(=O)N[C@H](C(=O)N[C@@H](Cc1ccc(O)cc1)C(=O)N1CCC[C@H]1C(=O)N[C@@H](CCCNC(=N)N)C(=O)N[C@H](C(=O)N[C@@H](CC(=O)O)C(=O)N[C@H](C(=O)NCC(=O)N[C@@H](C)C(=O)NCC(=O)N[C@H](C(=O)N1CCC[C@H]1C(N)=O)[C@@H](C)O)C(C)C)[C@@H](C)O)[C@@H](C)O [(Leu^8)-eCT] (H-CSNLSTCLLGKLSQELHKLQTYPRTDVGAGTP-NH2; disulfide 1-7)
[2]
  Ratio of Nasal:i.v. Bioavailability: 28.6%

## [(Chx-Ser)^5, Ala^7, des-^22 ]-Avian Calcitonin (5-32) [[(CHX-Ser)-5,Ala-7,des-22]-cCT(5-32)]
[1]; dose 1 ug/kg s.c., 1 hr
  Ca++ Decrease: 0.32 mg/dL
[1]; dose 10 ug/kg s.c., 1 hr
  Ca++ Decrease: 1.42 mg/dL
[1]; dose 100 ug/kg s.c., 1 hr
  Ca++ Decrease: 1.82 mg/dL

## [(Chx-Ser-Thr)2 -Lys^7, Leu^8 ]-Eel Calcitonin (7-32) [[(ChxSerThr)2 -Lys^7, Leu^8]-eCT(7-32)]
[1]; dose 0.01 ug/kg s.c., 1 hr
  Ca++ Decrease: 0.13 mg/dL
[1]; dose 0.03 ug/kg s.c., 1 hr
  Ca++ Decrease: 0.24 mg/dL
[1]; dose 0.1 ug/kg s.c., 1 hr
  Ca++ Decrease: 0.39 mg/dL
[1]; dose 0.32 ug/kg s.c., 1 hr
  Ca++ Decrease: 1.09 mg/dL
[1]; dose 1 ug/kg s.c., 1 hr
  Ca++ Decrease: 2.42 mg/dL
[2]
  Ratio of Nasal:i.v. Bioavailability: 17.4%

## [(LeuCys)^1, Leu^8 ]-eCT
[1]; dose 0.03 ug/kg s.c., 1 hr
  Ca++ Decrease: 1.24 mg/dL
[1]; dose 1 ug/kg s.c., 1 hr
  Ca++ Decrease: 3.35 mg/dL
[2]
  Ratio of Nasal:i.v. Bioavailability: 37.5%

## [(Ac0AOA-SerThr)2 -Lys-7]-cCT(7-32)
[1]; dose 0.1 ug/kg s.c., 1 hr
  Ca++ Decrease: 0.42 mg/dL
[1]; dose 0.4 ug/kg s.c., 1 hr
  Ca++ Decrease: 0.45 mg/dL
[1]; dose 1 ug/kg s.c., 1 hr
  Ca++ Decrease: 2.29 mg/dL
[1]; dose 10 ug/kg s.c., 1 hr
  Ca++ Decrease: 2.45 mg/dL
[1]; dose 100 ug/kg s.c., 1 hr
  Ca++ Decrease: 2.34 mg/dL

## CC(C)C[C@H](NC(=O)[C@H](CC(C)C)NC(=O)[C@@H]1CCCCNC(=O)CCC(=O)N[C@@H](CO)C(=O)N[C@@H](CC(N)=O)C(=O)N[C@@H](CC(C)C)C(=O)N[C@@H](CO)C(=O)N[C@@H]([C@@H](C)O)C(=O)N1)C(=O)NCC(=O)N[C@@H](CCCCN)C(=O)N[C@@H](CC(C)C)C(=O)N[C@@H](CO)C(=O)N[C@@H](CCC(N)=O)C(=O)N[C@@H](CCC(=O)O)C(=O)N[C@@H](CC(C)C)C(=O)N[C@@H](Cc1c[nH]cn1)C(=O)N[C@@H](CCCCN)C(=O)N[C@@H](CC(C)C)C(=O)N[C@@H](CCC(N)=O)C(=O)N[C@H](C(=O)N[C@@H](Cc1ccc(O)cc1)C(=O)N1CCC[C@H]1C(=O)N[C@@H](CCCNC(=N)N)C(=O)N[C@H](C(=O)N[C@@H](CC(=O)O)C(=O)N[C@H](C(=O)NCC(=O)N[C@@H](C)C(=O)NCC(=O)N[C@H](C(=O)N1CCC[C@H]1C(N)=O)[C@@H](C)O)C(C)C)[C@@H](C)O)[C@@H](C)O (SNLSTKLLGKLSQELHKLQTYPRTDVGAGTP-NH2; linker N-6 via Suc)
[2]
  Ratio of Nasal:i.v. Bioavailability: 14.3%

## [(D-Ala-Ada-Ser)^5, Ala^7, des-^22 ]-Avian Calcitonin (5-32)
[1]; dose 1 ug/kg s.c., 1 hr
  Ca++ Decrease: 0.32 mg/dL
[1]; dose 10 ug/kg s.c., 1 hr
  Ca++ Decrease: 1.42 mg/dL
[1]; dose 100 ug/kg s.c., 1 hr
  Ca++ Decrease: 1.82 mg/dL
